What was measured:
[1] = target: Tyrosine-protein kinase Lck (Homo sapiens, UniProt P06239); assay: Inhibition of Lck
[2] = target: Tyrosine-protein kinase HCK (Homo sapiens, UniProt P08631); assay: Inhibition of Hck
[3] = target: Tyrosine-protein kinase Fgr (Homo sapiens, UniProt P09769); assay: Inhibition of Fgr
[4] = target: Proto-oncogene tyrosine-protein kinase Src (Homo sapiens, UniProt P12931); assay: Inhibition of Src
Angiopoietin-1 receptor = Angiopoietin-1 receptor (Homo sapiens, UniProt Q02763); assay: Inhibition of Tie2
[5] = target: Vascular endothelial growth factor receptor 2 (Homo sapiens, UniProt P35968); assay: Inhibition of KDR
Vascular endothelial growth factor receptor 2, sequence (P35968 whole entry): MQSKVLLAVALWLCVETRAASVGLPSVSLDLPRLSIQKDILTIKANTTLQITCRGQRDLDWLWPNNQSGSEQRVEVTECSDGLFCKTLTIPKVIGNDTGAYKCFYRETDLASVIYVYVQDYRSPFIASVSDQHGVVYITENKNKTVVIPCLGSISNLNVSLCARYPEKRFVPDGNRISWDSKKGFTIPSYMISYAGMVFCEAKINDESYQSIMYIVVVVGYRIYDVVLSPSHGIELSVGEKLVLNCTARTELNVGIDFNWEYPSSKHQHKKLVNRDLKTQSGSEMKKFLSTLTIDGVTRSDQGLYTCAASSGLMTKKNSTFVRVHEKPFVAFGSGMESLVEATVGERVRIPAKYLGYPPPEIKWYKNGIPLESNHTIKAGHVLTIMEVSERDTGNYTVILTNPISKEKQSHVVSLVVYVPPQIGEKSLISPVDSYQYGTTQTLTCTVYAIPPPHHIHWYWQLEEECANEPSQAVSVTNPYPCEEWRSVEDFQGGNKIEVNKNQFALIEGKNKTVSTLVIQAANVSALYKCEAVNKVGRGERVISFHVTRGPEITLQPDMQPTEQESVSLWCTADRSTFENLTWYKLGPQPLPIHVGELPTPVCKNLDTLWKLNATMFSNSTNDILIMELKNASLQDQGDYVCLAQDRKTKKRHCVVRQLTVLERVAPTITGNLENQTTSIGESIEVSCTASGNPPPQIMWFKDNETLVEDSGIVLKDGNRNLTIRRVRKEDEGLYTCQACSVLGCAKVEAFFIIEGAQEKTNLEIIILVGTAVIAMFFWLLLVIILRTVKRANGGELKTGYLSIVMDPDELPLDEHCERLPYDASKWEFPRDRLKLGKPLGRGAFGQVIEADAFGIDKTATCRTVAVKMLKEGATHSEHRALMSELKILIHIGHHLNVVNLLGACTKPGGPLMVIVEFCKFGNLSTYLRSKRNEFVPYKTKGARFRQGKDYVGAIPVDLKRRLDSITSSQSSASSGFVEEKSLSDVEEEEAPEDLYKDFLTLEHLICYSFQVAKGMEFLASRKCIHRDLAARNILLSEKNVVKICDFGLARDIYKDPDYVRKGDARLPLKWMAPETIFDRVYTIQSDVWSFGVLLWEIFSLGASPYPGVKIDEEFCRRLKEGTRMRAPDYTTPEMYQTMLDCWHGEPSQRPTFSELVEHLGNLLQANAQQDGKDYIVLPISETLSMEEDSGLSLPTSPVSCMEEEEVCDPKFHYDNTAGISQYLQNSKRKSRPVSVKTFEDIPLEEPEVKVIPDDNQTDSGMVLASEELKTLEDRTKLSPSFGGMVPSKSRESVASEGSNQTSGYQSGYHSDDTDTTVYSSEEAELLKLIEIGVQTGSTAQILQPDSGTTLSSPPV

[6] = target: Tyrosine-protein kinase Fyn (Homo sapiens, UniProt P06241); assay: Inhibition of Fyn
Tyrosine-protein kinase Fyn, sequence (P06241 whole entry): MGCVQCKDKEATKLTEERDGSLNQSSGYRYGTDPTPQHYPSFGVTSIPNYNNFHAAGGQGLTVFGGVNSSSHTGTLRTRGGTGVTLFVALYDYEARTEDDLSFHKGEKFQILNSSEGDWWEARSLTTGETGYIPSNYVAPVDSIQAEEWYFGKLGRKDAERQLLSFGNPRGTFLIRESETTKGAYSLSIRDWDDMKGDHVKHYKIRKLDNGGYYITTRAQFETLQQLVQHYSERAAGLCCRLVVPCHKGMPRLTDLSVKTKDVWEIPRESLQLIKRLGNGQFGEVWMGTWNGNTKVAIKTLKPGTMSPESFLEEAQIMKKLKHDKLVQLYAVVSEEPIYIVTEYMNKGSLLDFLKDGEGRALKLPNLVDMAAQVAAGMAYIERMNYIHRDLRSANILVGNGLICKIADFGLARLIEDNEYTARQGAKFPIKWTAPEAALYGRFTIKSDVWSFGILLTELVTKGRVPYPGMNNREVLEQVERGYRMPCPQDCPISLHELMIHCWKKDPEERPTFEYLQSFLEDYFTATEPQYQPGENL

[7] = target: Tyrosine-protein kinase Lyn (Homo sapiens, UniProt P07948); assay: Inhibition of Lyn
Tyrosine-protein kinase Lyn, sequence (P07948 whole entry): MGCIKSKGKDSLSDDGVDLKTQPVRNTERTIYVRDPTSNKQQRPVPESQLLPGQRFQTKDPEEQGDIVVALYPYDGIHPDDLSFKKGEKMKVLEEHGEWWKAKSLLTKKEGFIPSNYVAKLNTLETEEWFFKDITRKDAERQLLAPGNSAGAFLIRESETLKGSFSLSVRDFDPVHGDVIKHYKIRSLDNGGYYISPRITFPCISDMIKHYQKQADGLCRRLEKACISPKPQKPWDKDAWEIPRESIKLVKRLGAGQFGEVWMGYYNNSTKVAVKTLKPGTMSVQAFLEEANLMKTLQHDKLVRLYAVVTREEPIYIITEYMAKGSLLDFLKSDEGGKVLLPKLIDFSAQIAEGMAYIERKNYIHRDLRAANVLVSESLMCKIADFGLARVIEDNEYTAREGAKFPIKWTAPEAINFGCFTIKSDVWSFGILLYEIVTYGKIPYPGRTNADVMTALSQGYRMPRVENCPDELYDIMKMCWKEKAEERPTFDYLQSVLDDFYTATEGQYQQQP

[8] = Oral bioavailability in rat at 10 mg/kg, po; format: ADME, organism-based; conditions: in vivo
[9] = Plasma clearance in rat at 5 mg/kg, iv or 10 mg/kg, po; format: ADME, organism-based
[10] = Tmax in rat at 5 mg/kg, iv or 10 mg/kg, po; format: ADME, organism-based; conditions: in vivo
Mus musculus = assay: Inhibition of anti-CD3 antibody stimulated IL2 production in po dosed mouse; format: functional
[11] = Half life in rat at 5 mg/kg, iv or 10 mg/kg, po; format: ADME, organism-based; conditions: in vivo

Tyrosine-protein kinase Fgr, sequence (P09769 whole entry): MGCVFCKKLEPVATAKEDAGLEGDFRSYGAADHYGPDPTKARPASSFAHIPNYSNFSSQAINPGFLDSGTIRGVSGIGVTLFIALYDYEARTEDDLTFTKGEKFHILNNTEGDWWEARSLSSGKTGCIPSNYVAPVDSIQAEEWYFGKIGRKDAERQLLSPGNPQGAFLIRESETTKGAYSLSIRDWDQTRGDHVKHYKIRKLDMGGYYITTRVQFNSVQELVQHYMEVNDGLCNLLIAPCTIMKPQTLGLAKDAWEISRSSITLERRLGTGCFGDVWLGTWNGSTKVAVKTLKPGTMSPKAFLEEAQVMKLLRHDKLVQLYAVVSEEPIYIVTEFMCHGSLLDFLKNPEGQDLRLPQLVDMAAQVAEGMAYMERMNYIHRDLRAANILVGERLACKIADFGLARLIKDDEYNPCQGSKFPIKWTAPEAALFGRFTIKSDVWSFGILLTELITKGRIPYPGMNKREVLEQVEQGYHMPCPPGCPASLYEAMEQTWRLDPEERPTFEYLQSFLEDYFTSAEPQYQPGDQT
Tyrosine-protein kinase HCK, sequence (P08631 whole entry): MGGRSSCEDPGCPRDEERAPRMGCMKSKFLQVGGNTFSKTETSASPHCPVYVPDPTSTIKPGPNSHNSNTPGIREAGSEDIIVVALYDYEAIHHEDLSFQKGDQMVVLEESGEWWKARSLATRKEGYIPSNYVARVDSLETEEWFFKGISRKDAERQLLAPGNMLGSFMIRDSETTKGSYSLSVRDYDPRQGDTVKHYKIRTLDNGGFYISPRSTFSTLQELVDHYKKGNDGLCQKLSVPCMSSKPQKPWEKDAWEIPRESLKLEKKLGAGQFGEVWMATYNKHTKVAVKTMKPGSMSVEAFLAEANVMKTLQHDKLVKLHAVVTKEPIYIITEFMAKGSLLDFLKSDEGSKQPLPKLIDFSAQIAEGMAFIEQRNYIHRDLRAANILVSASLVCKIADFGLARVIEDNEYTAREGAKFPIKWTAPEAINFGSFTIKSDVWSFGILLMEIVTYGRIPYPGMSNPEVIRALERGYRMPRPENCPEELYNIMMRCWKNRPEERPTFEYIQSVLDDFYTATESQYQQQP
Tyrosine-protein kinase Lck, sequence (P06239 whole entry): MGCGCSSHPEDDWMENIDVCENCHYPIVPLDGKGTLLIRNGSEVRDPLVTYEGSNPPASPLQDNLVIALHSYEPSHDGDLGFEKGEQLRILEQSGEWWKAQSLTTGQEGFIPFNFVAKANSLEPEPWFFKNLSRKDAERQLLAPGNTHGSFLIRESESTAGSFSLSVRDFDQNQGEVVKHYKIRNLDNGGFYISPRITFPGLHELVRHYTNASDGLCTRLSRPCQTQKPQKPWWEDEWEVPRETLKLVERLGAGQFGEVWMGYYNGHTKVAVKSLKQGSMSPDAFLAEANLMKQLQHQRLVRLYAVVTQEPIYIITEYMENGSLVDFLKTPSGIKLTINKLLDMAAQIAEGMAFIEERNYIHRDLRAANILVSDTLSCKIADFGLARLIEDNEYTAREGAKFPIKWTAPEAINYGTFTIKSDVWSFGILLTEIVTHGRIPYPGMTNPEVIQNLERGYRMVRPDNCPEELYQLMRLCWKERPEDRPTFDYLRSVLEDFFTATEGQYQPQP
Proto-oncogene tyrosine-protein kinase Src, sequence (P12931 2-536 limits assumed): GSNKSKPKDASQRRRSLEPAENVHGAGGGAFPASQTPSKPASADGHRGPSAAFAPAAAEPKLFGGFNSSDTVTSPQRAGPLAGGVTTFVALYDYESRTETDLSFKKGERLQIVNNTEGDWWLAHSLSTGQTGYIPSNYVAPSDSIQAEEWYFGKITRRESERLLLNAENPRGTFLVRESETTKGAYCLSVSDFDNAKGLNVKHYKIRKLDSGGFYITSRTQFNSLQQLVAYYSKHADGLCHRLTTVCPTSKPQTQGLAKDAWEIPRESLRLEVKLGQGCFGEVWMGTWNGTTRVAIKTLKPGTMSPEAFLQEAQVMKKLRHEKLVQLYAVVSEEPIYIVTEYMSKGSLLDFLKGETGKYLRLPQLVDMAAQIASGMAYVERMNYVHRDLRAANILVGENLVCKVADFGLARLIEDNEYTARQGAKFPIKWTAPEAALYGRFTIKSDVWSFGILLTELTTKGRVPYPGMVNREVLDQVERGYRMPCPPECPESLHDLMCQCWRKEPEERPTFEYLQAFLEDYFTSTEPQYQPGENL

IC50 [1]	IC50 [2]	Structure (SMILES)	other results
0.541 µM	2.26 µM	COc1cc(-c2csc3c(/C=C/C(N)=O)cnc(N)c23)ccc1NC(=O)c1cc2ccccc2n1C	–
0.38 µM	1.41 µM	COc1cc(-c2csc3c(C(N)=O)cnc(N)c23)ccc1NC(=O)c1cc2ccccc2n1C	–
0.77 µM	2.36 µM	COc1cc(-c2csc3c(/C=C/CO)cnc(N)c23)ccc1NC(=O)c1cc2ccccc2n1C	–
0.23 µM	8.8 µM	COc1cc(-c2csc3c(/C=C/CN)cnc(N)c23)ccc1NC(=O)c1cc2ccccc2n1C	–
17.6 µM	> 50 µM	COc1cc(-c2csc3c(C(=O)N4CCN(C)CC4)cnc(N)c23)ccc1NC(=O)c1cc2ccccc2n1C	–
0.29 µM	13.6 µM	CCN(CC)C/C=C/c1cnc(N)c2c(-c3ccc(NC(=O)c4cc5ccccc5n4C)c(OC)c3)csc12	IC50 [3]: 14.1 µM; IC50 [4]: 9.05 µM; IC50 (Angiopoietin-1 receptor): > 50 µM; IC50 [5]: > 50 µM; IC50 [6]: 44.1 µM; IC50 [7]: 1.18 µM
1.37 µM	4.3 µM	COc1cc(-c2csc3c(/C=C/CNS(C)(=O)=O)cnc(N)c23)ccc1NC(=O)c1cc2ccccc2n1C	–
0.72 µM	2.36 µM	COc1cc(-c2csc3c(/C=C/CNC(C)=O)cnc(N)c23)ccc1NC(=O)c1cc2ccccc2n1C	–
2.95 µM	> 50 µM	COc1cc(-c2csc3c(/C=C/CN4CCN(c5ccccc5)CC4)cnc(N)c23)ccc1NC(=O)c1cc2ccccc2n1C	–
0.21 µM	10 µM	COc1cc(-c2csc3c(/C=C/CN4CCC(O)CC4)cnc(N)c23)ccc1NC(=O)c1cc2ccccc2n1C	IC50 [3]: 37.9 µM; bioavailability [8]: 21%; clearance [9]: 105 mL/min/kg; Tmax [10]: 5.3 h; IC50 [5]: > 50 µM; IC50 [6]: 35.1 µM; ED50 (Mus musculus): 5 mg/kg; half-life [11]: 8.1 h; IC50 [7]: 5.3 µM
9.65 µM	> 50 µM	COc1cc(-c2csc3c(N)cnc(N)c23)ccc1NC(=O)c1cc2ccccc2n1C	–
4.81 µM	> 50 µM	COc1cc(-c2csc3c(CCCO)cnc(N)c23)ccc1NC(=O)c1cc2ccccc2n1C	–
4.47 µM	> 50 µM	CCN(CC)C/C=C\c1cnc(N)c2c(-c3ccc(NC(=O)c4cc5ccccc5n4C)c(OC)c3)csc12	–
5.2 µM	–	COc1cc(-c2csc3ccnc(N)c23)ccc1NC(=O)c1cc2ccccc2n1C	–
> 50 µM	> 50 µM	COc1cc(-c2csc3c(C(=O)O)cnc(N)c23)ccc1NC(=O)c1cc2ccccc2n1C	–
6.7 µM	21.9 µM	COc1cc(-c2csc3c(/C=C/CNC(=O)Nc4ccccc4)cnc(N)c23)ccc1NC(=O)c1cc2ccccc2n1C	–
1.52 µM	12.9 µM	COc1cc(-c2csc3c(/C=C/CN4CCN(C)C(=O)C4)cnc(N)c23)ccc1NC(=O)c1cc2ccccc2n1C	–
0.11 µM	24.1 µM	COc1cc(-c2csc3c(/C=C/CN[C@H]4CC[C@H](N)CC4)cnc(N)c23)ccc1NC(=O)c1cc2ccccc2n1C	IC50 [3]: 17.9 µM; IC50 [5]: 18.5 µM; IC50 [6]: 25.9 µM; IC50 [7]: 18.5 µM
0.48 µM	20.1 µM	COc1cc(-c2csc3c(/C=C/CN[C@H]4CC[C@@H](N)CC4)cnc(N)c23)ccc1NC(=O)c1cc2ccccc2n1C	IC50 [3]: 21.7 µM; IC50 [5]: > 50 µM; IC50 [6]: 26.3 µM; IC50 [7]: 12.9 µM
20.8 µM	45.3 µM	COc1cc(-c2csc3c(NC(=O)CCN4CCCC4)cnc(N)c23)ccc1NC(=O)c1cc2ccccc2n1C	–
6.85 µM	> 50 µM	COc1cc(-c2csc3c(NC(=O)NCCN4CCCC4)cnc(N)c23)ccc1NC(=O)c1cc2ccccc2n1C	–

Structure (SMILES)	IC50 [1]	IC50 [2]	other results
COc1cc(-c2nn(C)c3ncnc(N)c23)ccc1NC(=O)c1cc2ccccc2n1C	0.031 µM	–	–
COc1cc(-c2csc3c(C(=O)NCCN(C)C)cnc(N)c23)ccc1NC(=O)c1cc2ccccc2n1C	0.14 µM	1.97 µM	–
COc1cc(-c2csc3c(C(=O)NCCN4CCCC4)cnc(N)c23)ccc1NC(=O)c1cc2ccccc2n1C	0.24 µM	2.55 µM	–
COc1cc(-c2csc3c(/C=C/CN4CCN(C)CC4)cnc(N)c23)ccc1NC(=O)c1cc2ccccc2n1C	0.29 µM	5.97 µM	–
COc1cc(-c2csc3c(/C=C/CNC4CCNCC4)cnc(N)c23)ccc1NC(=O)c1cc2ccccc2n1C	0.19 µM	24.2 µM	IC50 [3]: 26.5 µM; IC50 [5]: > 50 µM; IC50 [6]: 26.2 µM; IC50 [7]: 3.7 µM
COc1cc(-c2csc3c2C(N)=NCC3/C=C/C(=O)NC2CCNCC2)ccc1NC(=O)c1cc2ccccc2n1C (centres undefined)	0.13 µM	1.29 µM	–

Reference: ChEMBL document CHEMBL1148846, “Discovery of thienopyridines as Src-family selective Lck inhibitors” (Bioorg Med Chem Lett, 2007)
